Reference: patent publication US11110185B2, “Combination formulation” (GE Healthcare AS, priority 2015, dated 2021)

How the values were obtained:
[1] = Contrast-enhanced MR imaging of dynamic vascular and delayed phases in minipigs; assay type: in vivo, Gottingen minipigs; settings: for Peak Aorta SI: aorta ROI, 3.0 T, IV single injection 0.3 ml/kg; for percentage relative vascular intensity (1-RVI %), AP: arterial phase, 30 secs; for RVI AUC (total vascular enhancement: aorta, IVC, PV): composite RVI curves normalised to liver parenchyma, trapezoidal rule; for percentage relative vascular intensity (1-RVI %), LVP: late venous phase, 120 secs; for percentage relative vascular intensity (1-RVI %), PVP: portal venous phase, 60 secs
Description: The study was approved by the Universitair Ziekenhuis Brussel (UZB), Belgium local ethics committee for animal experiments on the 9 Mar. 2016 (EC number: 16-272-4). All animal experiments were carried out in accordance with the applicable laws and regulations. Naïve minipigs (Gottingen minipigs, Ellegaard Gottingen Minipigs, Denmark) were chosen as the model as its cardiac function and vascular dynamics closely resembles that of the human allowing optimal spatial and temporal resolution for the evaluation of the dynamic vascular phase.
The study consisted of five dosing groups (2 groups of contrast agent administered as single stand-alone dose; 3 groups administered with the Combo formulations). Each animal was tested once within each dosing group with a washout period of one week.
For each MRI examination, anaesthesia was induced with a bolus of the Zoletil mixture (0.06 ml/kg, intramuscular) and maintained by an infusion of Nesdonal (0.6 ml/kg/h, intravenously (IV) administered). Test items were administered IV as a single injection via PAC unit (Port-a-cath, Power PAC II, 1.9 mm, Smiths Medical, Belgium). The test items were administered at a volume of 0.3 ml/kg using a power injector (Medrad Spectris Solaris) at a rate of 2 ml/s. Immediately following administration, 20 ml saline was passed through the tubing to flush any remaining test item.
All MRI acquisitions were performed on a clinical 3.0 T GE MR750w scanner (GE Discovery, GE Healthcare, Waukesha, Wis.) using an abdominal phase-array surface coil positioned on the abdomen of the pigs. A multiphase dynamic 3D T1w LAVA (Liver Acquisition with Volume Acquisition) was performed using bolus timing to capture the early arterial to the late venous vascular phase using the following imaging parameters: TR/TE=2.9/1.3 ms, FA=12°, FoV=42×40 cm, matrix 220×160, slice thickness=3 mm, number of slices=40, NEX=1. The protocol also included a free-breathing navigated LAVA acquired at both pre and post administration of test item (during the delayed enhancement phase).
Quantitative analysis on the time-resolved dynamic series was completed using the Advantage Windows VolumeShare 7 Workstation (GE Healthcare). […] Visual verification of all ROI locations was performed by an abdominal radiologist. For each test item, absolute signal intensity (SI) curves were analysed for each of the ROIs and expressed as peak value with inter-quartile ranges of 25% and 75%.
To calculate the vascular enhancement, relative vascular intensity (RVI) was normalised to liver parenchyma for the aorta, IVC and PV using the equation below.
Relative Vascular Intensity (RVI)=(SI(Vessel)−SI(Liver))/(SI(Liver))
Using the RVI curves, composite vascular intensity curves were derived encompassing all vascular signal from the aorta, IVC and the PV. The total vascular enhancement associated with each test item was determined by the trapezoidal rule of area under the curve (AUC), where positive signal above y=0 was included. From this, time-relative fractions at the arterial phase (AP: 30 secs), portal venous phase (PVP: 60 secs) and late venous phase (LVP: 120 secs) were expressed as a proportion of the total vascular AUC (% RVI) and were calculated as 1-% RVI to give the percentage reduction though each phase.
For the delayed phase, a qualitative assessment was performed by an experienced radiologist for the presence or lack of enhancement pre and post-administration of test item.

[2] = In vitro relaxivity measurements (NMR relaxometer, 60 MHz, 37° C.); assay type: physicochemical
Description: In vitro relaxivity measurements were used to evaluate the efficacy (relaxivity) of the Combo formulations compared to the standalone commercial contrast agents. Longitudinal relaxation times were measured in 150 mM saline solution at 37° C. using a Minispec Mq benchtop NMR relaxometer (Bruker Instruments, Rheinstetten, Germany) operating at 60 MHz. The longitudinal relaxivity of the complexes were calculated by plotting the reciprocal of the T1 relaxation time versus the gadolinium concentration as determined via ICP-MS for each individual agent and the Combo formulations tested.

[3] = normal liver, after intravenous injection; cited from earlier work

Relaxivity in aqueous solution (r1) [2] [mM⁻¹ s⁻¹] | Substance | vascular enhancement in LVP (in words) ([1]; 120 secs post injection) | Peak Aorta SI [1] | percentage relative vascular intensity (1-RVI %), AP [1] [%] | RVI AUC (total vascular enhancement: aorta, IVC, PV) [1] [AU] | percentage relative vascular intensity (1-RVI %), LVP [1] [%] | percentage relative vascular intensity (1-RVI %), PVP [1] [%] | hepatobiliary excretion [3] | peak arterial enhancement, SI (in words) ([1]; SI curves, aorta)
4.7 | disodium; 2-[[2-[bis(carboxylatomethyl)amino]-3-(4-ethoxyphenyl)propyl]-[2-bis(carboxylatomethyl)amino]ethyl]amino]acetate, gadolinium(3+) [Gadoxetate] | no vascular enhancement evident | 2096 | 82.4 | 34.2 | 0.0 | 19.0 | up to 50% | 
2.9 | 2-[4,7-his(carboxylatomethyl)-1 0-(carboxymethyl)-1,4, 7,10-tetrazacyclododec-1-yl]acetate; gadolinium(3+) [Gadoterate] |  | 2402 | 97.5 | 63.2 | 8.4 | 42.8 |  | highest SI
